Results published in patent US12404241B2 (Celgene Corporation, priority 2018, dated 2025).

Biological target: T1, AR (Homo sapiens, UniProt P10275)
T1 construct: endogenous in cells; host or cells: VCaP cells
T1 sequence (P10275 1-920): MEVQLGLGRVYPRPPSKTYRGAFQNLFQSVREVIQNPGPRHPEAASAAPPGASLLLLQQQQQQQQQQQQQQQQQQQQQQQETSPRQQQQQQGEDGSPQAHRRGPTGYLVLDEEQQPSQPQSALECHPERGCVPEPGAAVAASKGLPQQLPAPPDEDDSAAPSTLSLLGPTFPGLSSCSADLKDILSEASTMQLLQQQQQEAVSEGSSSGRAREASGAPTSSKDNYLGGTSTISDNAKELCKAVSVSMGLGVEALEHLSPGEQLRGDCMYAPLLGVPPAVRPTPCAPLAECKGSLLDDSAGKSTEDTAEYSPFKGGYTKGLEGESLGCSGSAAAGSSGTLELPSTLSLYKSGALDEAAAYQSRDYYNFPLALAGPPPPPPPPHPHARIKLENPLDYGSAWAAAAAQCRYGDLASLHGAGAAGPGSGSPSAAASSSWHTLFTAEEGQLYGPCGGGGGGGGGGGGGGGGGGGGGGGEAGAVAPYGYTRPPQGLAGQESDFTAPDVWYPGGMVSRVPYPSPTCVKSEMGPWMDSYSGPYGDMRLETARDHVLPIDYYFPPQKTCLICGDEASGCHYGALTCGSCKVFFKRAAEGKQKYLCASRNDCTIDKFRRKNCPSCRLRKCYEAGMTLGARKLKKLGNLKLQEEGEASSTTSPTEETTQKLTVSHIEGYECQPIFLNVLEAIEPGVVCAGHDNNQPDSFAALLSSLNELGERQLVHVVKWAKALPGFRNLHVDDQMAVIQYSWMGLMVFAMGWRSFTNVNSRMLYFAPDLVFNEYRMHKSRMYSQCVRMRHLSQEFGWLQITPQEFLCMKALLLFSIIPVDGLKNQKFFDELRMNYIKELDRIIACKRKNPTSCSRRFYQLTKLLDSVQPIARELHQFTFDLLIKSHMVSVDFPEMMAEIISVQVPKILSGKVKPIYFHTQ
Assay: VCAP AR Degradation Assay
Assay type: cell-based
Conditions: for Y (AR degradation efficiency, % of DMSO control): class symbols *; for DC50: class symbols A-C, read-out: DC50
Summary of the method: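 Compounds were plated as 10-point 1:3 series reaching 5 μM final, then VCaP cells were seeded onto them and incubated 24 h at 37 °C. Cells were lysed cold, and total AR was measured by sandwich ELISA relative to 0.1% DMSO wells.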

SMILES	Y (AR degradation efficiency, % of DMSO control)	DC50 [nM]
CCc1cc(N2C(=S)N(c3cnc(C#N)c(C(F)(F)F)c3)C(=O)C2(C)C)ccc1OCCN1CCN(CC(=O)Nc2cc(F)cc(NC3CCC(=O)NC3=O)c2)[C@H](C)C1 (stereo partly drawn) [Example 75, 2-((R)-4-(2-(4-(3-(6-cyano-5-(trifluoromethyl)pyridin-3-yl)-5,5-dimethyl-4-oxo-2-thioxoimidazolidin-1-yl)-2-ethylphenoxy)ethyl)-2-methylpiperazin-1-yl)-N-(3-(2,6-dioxopiperidin-3-ylamino)-5-fluorophenyl)acetamide]	* (0<Y<=25%)	< 100
CCc1cc(N2C(=S)N(c3cnc(C#N)c(C(F)(F)F)c3)C(=O)C2(C)C)ccc1OCCN1CCN(CC(=O)Nc2cc(NC3CCC(=O)NC3=O)ccc2F)[C@H](C)C1 (stereo partly drawn) [Example 76, 2-((R)-4-(2-(4-(3-(6-cyano-5-(trifluoromethyl)pyridin-3-yl)-5,5-dimethyl-4-oxo-2-thioxoimidazolidin-1-yl)-2-ethylphenoxy)ethyl)-2-methylpiperazin-1-yl)-N-(5-(2,6-dioxopiperidin-3-ylamino)-2-fluorophenyl)acetamide]	* (0<Y<=25%)	< 100
CCc1cc(N2C(=S)N(c3cnc(C#N)c(C(F)(F)F)c3)C(=O)C2(C)C)ccc1OCCN1CCN(CC(=O)Nc2cc(F)cc(NC3CCC(=O)NC3=O)c2)C(C)(C)C1 (centres unmarked) [Example 77, 2-(4-(2-(4-(3-(6-cyano-5-(trifluoromethyl)pyridin-3-yl)-5,5-dimethyl-4-oxo-2-thioxoimidazolidin-1-yl)-2-ethylphenoxy)ethyl)-2,2-dimethylpiperazin-1-yl)-N-(3-(2,6-dioxopiperidin-3-ylamino)-5-fluorophenyl)acetamide]	* (0<Y<=25%)	< 100
CCc1cc(N2C(=S)N(c3cnc(C#N)c(C(F)(F)F)c3)C(=O)C2(C)C)ccc1OCCN1CCN(CC(=O)Nc2cc(Cl)cc(NC3CCC(=O)NC3=O)c2)C(C)(C)C1 (centres unmarked) [Example 78, N-(3-chloro-5-(2,6-dioxopiperidin-3-ylamino)phenyl)-2-(4-(2-(4-(3-(6-cyano-5-(trifluoromethyl)pyridin-3-yl)-5,5-dimethyl-4-oxo-2-thioxoimidazolidin-1-yl)-2-ethylphenoxy)ethyl)-2,2-dimethylpiperazin-1-yl)acetamide]	* (0<Y<=25%)	< 100
CCc1cc(N2C(=S)N(c3ccc(C#N)c(C(F)(F)F)c3)C(=O)C2(C)C)ccc1OCCN1CCN(CC(=O)Nc2cc(Cl)cc(NC3CCC(=O)NC3=O)c2)C(C)(C)C1 (centres unmarked) [Example 79, N-(3-chloro-5-(2,6-dioxopiperidin-3-ylamino)phenyl)-2-(4-(2-(4-(3-(4-cyano-3-(trifluoromethyl)phenyl)-5,5-dimethyl-4-oxo-2-thioxoimidazolidin-1-yl)-2-ethylphenoxy)ethyl)-2,2-dimethylpiperazin-1-yl)acetamide]	** (25%<Y<=35%)	< 100
CC(F)(F)c1cc(N2C(=S)N(c3cnc(C#N)c(C(F)(F)F)c3)C(=O)C2(C)C)ccc1OCCN1CCN(CC(=O)Nc2cc(F)cc(NC3CCC(=O)NC3=O)c2)CC1 (centres unmarked) [Example 80, 2-(4-(2-(4-(3-(6-cyano-5-(trifluoromethyl)pyridin-3-yl)-5,5-dimethyl-4-oxo-2-thioxoimidazolidin-1-yl)-2-(1,1-difluoroethyl)phenoxy)ethyl)piperazin-1-yl)-N-(3-(2,6-dioxopiperidin-3-ylamino)-5-fluorophenyl)acetamide]	* (0<Y<=25%)	< 100
CCc1cc(N2C(=S)N(c3cnc(C#N)c(C(F)(F)F)c3)C(=O)C2(C)C)ccc1OCCN1CCN(CC(=O)Nc2cccc(NC3CCC(=O)NC3=O)c2)[C@H](C)C1 (stereo partly drawn) [Example 81, 2-((R)-4-(2-(4-(3-(6-cyano-5-(trifluoromethyl)pyridin-3-yl)-5,5-dimethyl-4-oxo-2-thioxoimidazolidin-1-yl)-2-ethylphenoxy)ethyl)-2-methylpiperazin-1-yl)-N-(3-(2,6-dioxopiperidin-3-ylamino)phenyl)acetamide]	* (0<Y<=25%)	< 100
